These results are taken from patent US12662490B2, “Heterocyclic compounds” (Hoffmann-La Roche Inc., priority 2019, dated 2026).

One may read the IC50 as the concentration at which inhibition is half-maximal. Low readings indicate greater potency, high ones weaker potency.

In the experiment the target is T1, MAGL (Homo sapiens, UniProt Q99685).
T1 sequence (Q99685 1-303): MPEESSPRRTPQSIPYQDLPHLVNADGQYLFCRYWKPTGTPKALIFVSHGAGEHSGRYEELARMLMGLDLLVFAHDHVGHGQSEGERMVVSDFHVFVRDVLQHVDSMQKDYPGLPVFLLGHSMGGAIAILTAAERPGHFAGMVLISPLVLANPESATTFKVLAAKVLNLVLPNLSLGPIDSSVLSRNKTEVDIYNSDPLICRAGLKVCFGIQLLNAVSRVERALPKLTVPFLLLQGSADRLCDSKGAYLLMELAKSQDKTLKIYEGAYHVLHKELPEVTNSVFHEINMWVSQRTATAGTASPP
The experiment in a line: 2-AG assay (MAGL inhibitory activity; hydrolysis of 2-arachidonoylglycerol to arachidonic acid followed by mass spectrometry). To be noted: 15 min preincubation at RT, 8 μM 2-arachidonoylglycerol, 30 min at RT, RapidFire MS readout. The class given is biochemical. The method, then: Compounds were profiled for MAGL inhibitory activity by determining the enzymatic activity by following the hydrolysis of the natural substrate 2-arachidonoylglycerol (2-AG) resulting in arachidonic acid, which can be followed by mass spectrometry. This assay is hereinafter abbreviated “2-AG assay”.
The 2-AG assay was carried out in 384 well assay plates (PP, Greiner Cat #784201) in a total volume of 20 μL. Compound dilutions were made in […] (VWR Chemicals 23500.297) in a polypropylene plate in 3-fold dilution steps to give a final concentration range in the assay from 12.5 μM to […]. 0.25 μL compound dilutions (100% DMSO) were added to 9 μL MAGL in assay buffer (50 mM TRIS (GIBCO, 15567-027), 1 mM EDTA (Fluka, 03690-100 mL), 0.010 (v/v) Tween. After shaking, the plate was incubated for 15 min at RT. To start the reaction, 10 μL 2-arachidonoylglycerol in assay buffer was added. The final concentrations in the assay was […] and 8 μM 2-arachidonoylglyerol. After shaking and 30 min incubation at RT, the reaction was quenched by the addition of 40 μL of ACN containing 4 μM of d8-arachidonic acid. The amount of arachidonic acid was traced by an online SPE system (Agilent Rapidfire) coupled to a triple quadrupole mass spectrometer (Agilent 6460). A C18 SPE cartridge (G9205A) was used in an ACN/water liquid setup. The mass spectrometer was operated in negative electrospray mode following the mass transitions 303.1→259.1 for arachidonic acid and 311.1→267.0 for d8-arachidonic acid. The activity of the compounds was calculated based on the ratio of intensities [arachidonic acid/d8-arachidonic acid].

With `COc1cccc(C(=O)N2CCN3C[C@@](O)(c4ccc(F)c(F)c4F)OC[C@@H]3C2)c1Cl` [Example 130, [(3R,9aS)-3-hydroxy-3-(2,3,4-trifluorophenyl)-1,4,6,7,9,9a-hexahydropyrazino[2,1-c][1,4]oxazin-8-yl]-(2-chloro-3-methoxy-phenyl)methanone], the IC50 was 117 nM.

As for `COc1ccc(F)c(C(=O)N2CCN3C[C@@H](c4ccc(F)c(Cl)c4)OC[C@@H]3C2)c1Cl` [Example 111, [(3R,9aS)-3-(3-chloro-4-fluoro-phenyl)-3,4,6,7,9,9a-hexahydro-1H-pyrazino[2,1-c][1,4]oxazin-8-yl]-(2-chloro-6-fluoro-3-methoxy-phenyl)methanone], the IC50 came out at 5.8 nM.

Take `COc1cccc(C(=O)N2CCN3C[C@@H](c4ccc(F)c(-c5ccccc5)c4)OC[C@@H]3C2)c1Cl` [Example 11, [(3R,9aS)-3-(4-fluoro-3-phenyl-phenyl)-3,4,6,7,9,9a-hexahydro-1H-pyrazino[2,1-c][1,4]oxazin-8-yl]-(2-chloro-3-methoxy-phenyl)methanone]: the IC50 was found to be 259 nM.

Compound `COc1cccc(C(=O)N2CCN3C[C@@H](c4cc(C(F)F)c(Cl)cn4)OC[C@@H]3C2)c1Cl` [Example 104, (2-chloro-3-methoxy-phenyl)-[(3S,9aS)-3-[5-chloro-4-(difluoromethyl)-2-pyridyl]-3,4,6,7,9,9a-hexahydro-1H-pyrazino[2,1-c][1,4]oxazin-8-yl]methanone] returned an IC50 of 89.5 nM.

In turn, `O=C(c1cccc(-c2c[nH]nc2F)c1Cl)N1CCN2C[C@@](O)(c3ccc(C(F)(F)F)nc3)OC[C@@H]2C1` [Example 65, [(3R,9aS)-3-hydroxy-3-[6-(trifluoromethyl)pyridin-3-yl]-1,4,6,7,9,9a-hexahydropyrazino[2,1-c][1,4]oxazin-8-yl]-[2-chloro-3-(3-fluoro-1H-pyrazol-4-yl)phenyl]methanone] had a half-inhibitory concentration (IC50) of 13.8 nM.

Compound `COc1cccc(C(=O)N2CCN3C[C@@](O)(c4cc(Br)c(OC)s4)OC[C@@H]3C2)c1Cl` [Example 131, [(3S,9aS)-3-(4-bromo-5-methoxy-2-thienyl)-3-hydroxy-1,4,6,7,9,9a-hexahydropyrazino[2,1-c][1,4]oxazin-8-yl]-(2-chloro-3-methoxy-phenyl)methanone] gave an IC50 of 118 nM.

On to `COc1cccc(C(=O)N2CCN3C[C@@H](c4cc(Cl)c(Cl)cn4)OC[C@@H]3C2)c1Cl` (single isomer, unassigned) [Example 67], for which the IC50 came to 8.4 nM.

In turn, `COc1cccc(C(=O)N2CCN3C[C@@H](c4cc(OC(F)(F)F)ccn4)OC[C@@H]3C2)c1Cl` [Example 99, (2-chloro-3-methoxy-phenyl)-[(3S,9aS)-3-[4-(trifluoromethoxy)-2-pyridyl]-3,4,6,7,9,9a-hexahydro-1H-pyrazino[2,1-c][1,4]oxazin-8-yl]methanone] came in with an IC50 of 284 nM.

With `O=C(c1cccc(-c2c[nH]c(=O)o2)c1Cl)N1CCN2C[C@@H](c3ccc(Cl)c(Cl)c3)OC[C@@H]2C1` [Example 118, 5-[3-[(3R,9aS)-3-(3,4-dichlorophenyl)-3,4,6,7,9,9a-hexahydro-1H-pyrazino[2,1-c][1,4]oxazine-8-carbonyl]-2-chloro-phenyl]-3H-oxazol-2-one], half-maximal inhibition (IC50) required 33.1 nM.

Turning to `O=C(c1cccc(-c2c[nH]nc2F)c1Cl)N1CCN2C[C@H](c3ccc(F)c(F)c3)OC[C@@H]2C1` [Example 96, [(3S,9aS)-3-(3,4-difluorophenyl)-3,4,6,7,9,9a-hexahydro-1H-pyrazino[2,1-c][1,4]oxazin-8-yl]-[2-chloro-3-(3-fluoro-1H-pyrazol-4-yl)phenyl]methanone], half-maximal inhibition (IC50) required 1240 nM.

The compound `COc1cccc(C(=O)N2CCN3C[C@@](O)(c4cc(F)c(F)cc4F)OC[C@@H]3C2)c1Cl` [Example 144, [(3R,9aS)-3-hydroxy-3-(2,4,5-trifluorophenyl)-1,4,6,7,9,9a-hexahydropyrazino[2,1-c][1,4]oxazin-8-yl]-(2-chloro-3-methoxy-phenyl)methanone] displayed an IC50 of 355 nM.

`N#Cc1cc(-c2cccc(C(=O)N3CCN4C[C@@H](c5cc(Cl)c[nH]c5=O)OC[C@@H]4C3)c2Cl)c[nH]1` [Example 117, 4-[3-[(3R,9aS)-3-(5-chloro-2-oxo-1H-pyridin-3-yl)-3,4,6,7,9,9a-hexahydro-1H-pyrazino[2,1-c][1,4]oxazine-8-carbonyl]-2-chloro-phenyl]-1H-pyrrole-2-carbonitrile] registered an IC50 of 17.4 nM.

For `O=C(c1cccc(-c2cc[nH]c(=O)c2)c1Cl)N1CCN2C[C@@H](c3ccc(F)c(Cl)c3)OC[C@@H]2C1` [Example 105, 4-[3-[(3R,9aS)-3-(3-chloro-4-fluoro-phenyl)-3,4,6,7,9,9a-hexahydro-1H-pyrazino[2,1-c][1,4]oxazine-8-carbonyl]-2-chloro-phenyl]-1H-pyridin-2-one], it took 8.9 nM to reach half-maximal inhibition (IC50).

The compound `O=C(c1cnc2[nH]ncc2c1Cl)N1CCN2C[C@@H](c3ccc(F)c(Cl)c3)OC[C@@H]2C1` [Example 8, [(3R,9aS)-3-(3-chloro-4-fluoro-phenyl)-3,4,6,7,9,9a-hexahydro-1H-pyrazino[2,1-c][1,4]oxazin-8-yl]-(4-chloro-1H-pyrazolo[3,4-b]pyridin-5-yl)methanone] had an IC50 of 705 nM.

On to `O=C(c1cccc(-c2c[nH]nc2F)c1Cl)N1CCN2C[C@@H](c3ccc(C(F)(F)F)nn3)OC[C@@H]2C1` [Example 97, [(3S,9aS)-3-[6-(trifluoromethyl)pyridazin-3-yl]-3,4,6,7,9,9a-hexahydro-1H-pyrazino[2,1-c][1,4]oxazin-8-yl]-[2-chloro-3-(3-fluoro-1H-pyrazol-4-yl)phenyl]methanone], for which half-maximal inhibition (IC50) was put at 439 nM.

As for `Cc1cccc(C(=O)N2CCN3C[C@@H](c4ccc(F)c(Cl)c4)OC[C@@H]3C2)c1C#N` [Example 20, 2-[(3R,9aS)-3-(3-chloro-4-fluoro-phenyl)-3,4,6,7,9,9a-xahydro-1H-pyrazino[2,1-c][1,4]oxazine-8-carbonyl]-6-methyl-benzonitrile], half-maximal inhibition (IC50) required 121 nM.

The compound `O=C(c1cccc(-c2c[nH]nc2F)c1Cl)N1CCN2C[C@@](O)(c3ccc(OC(F)F)cc3)OC[C@@H]2C1` [Example 69, [2-chloro-3-(3-fluoro-1H-pyrazol-4-yl)phenyl]-[(3R,9aS)-3-[4-(difluoromethoxy)phenyl]-3-hydroxy-1,4,6,7,9,9a-hexahydropyrazino[2,1-c][1,4]oxazin-8-yl]methanone] registered an IC50 of 51.8 nM.

Compound `COc1cccc(C(=O)N2CCN3C[C@@H](c4ccc(Br)cn4)OC[C@H]3C2)c1Cl` (racemic) [Example 54, (2-chloro-3-methoxy-phenyl)-[rac-(3S,9aR)-3-(5-bromo-2-pyridyl)-3,4,6,7,9,9a-hexahydro-1H-pyrazino[2,1-c][1,4]oxazin-8-yl]methanone] came in with an IC50 of 975 nM.

Consider `COc1cccc(C(=O)N2CCN3C[C@@](O)(c4nc5ccccc5n4C)OC[C@@H]3C2)c1Cl` [Example 71, [(3S,9aS)-3-hydroxy-3-(1-methylbenzimidazol-2-yl)-1,4,6,7,9,9a-hexahydropyrazino[2,1-c][1,4]oxazin-8-yl]-(2-chloro-3-methoxy-phenyl)methanone], for which the IC50 was 4030 nM.

Turning to `COc1ccc(C(=O)N2CCN3C[C@@H](c4ccc(F)c(Cl)c4)OC[C@@H]3C2)c(Cl)c1OC` [Example 19, [(3R,9aS)-3-(3-chloro-4-fluoro-phenyl)-3,4,6,7,9,9a-hexahydro-1H-pyrazino[2,1-c][1,4]oxazin-8-yl]-(2-chloro-3,4-dimethoxy-phenyl)methanone], the half-inhibitory concentration (IC50) was 305 nM.
